For this assay, the target named is Human DDB1 (Homo sapiens (Human), UniProt Q16531). Kind of assay: Surface plasmon resonance (SPR) binding assay to immobilized His-DDB1. To be noted: SPR, steady state affinity model, 25° C.; read-out: Binding (DDB1 binder activities, Kd). The method, then:
The binding affinities of heterobifunctional compounds to DDB1 were determined by SPR assay. Purified His-DDB1 proteins were immobilized on a CM5 sensor chip, and a dose range of compound solutions were injected in multi-cycle kinetic format. Data were fit to steady state model and gave equivalent dissociation constants (KD).
Protein Expression and Purification. Human DDB1 (UniPro: Q16531) coding sequences were cloned into pFastBacHTB vector and were expressed in High5 cells using Bac-to-Bac baculovirus expression system (Thermo Fisher Scientific). […] DDB1 proteins were obtained from supernatant of cell lysates and purified through sequential application of Ni affinity (Ni-NTA column. Bio-Rad), and size-exclusion (Superdex 200 16/600GL column, GE Healthcare) column chromatography.
Surface plasmon resonance (SPR) binding assay. All SPR studies were performed on a Biacore X100 plus or T200 instrument (GE Healthcare). Immobilization of purified His-DDB1 was carried out at 25° C. using a CM5 sensor chip. The surface was pre-equilibrated in HBS-EP running buffer (10 mM HEPES, pH7.4, 150 mM NaCl, 3 mM EDTA, 0.05% P20), then activated with EDC/NHS. His-DDB1 proteins were immobilized by amine coupling to a density of 11,000-13,000 resonance units (RUs) on flow cell FC2, whereas flow cell FC1 was used as reference. Both DDB1 immobilized and reference surfaces were deactivated with 1M ethanolamine.
All interaction experiments were performed at 25° C. […] Compound Solutions were injected individually in multi-cycle kinetic format without regeneration (flow rate […], association time 120 s, dissociation time 120 s). Sensorgrams from reference surfaces and blank injections were subtracted from the raw data (double-referencing) and the data was solvent-corrected prior to analysis. All data were fit to steady state affinity model using Biacore Evaluation Software and gave equivalent dissociation constants (KD).
For orientation: SPR reads the build-up and loss of mass on a sensor chip optically.
Sequence of Human DDB1 (Q16531 whole entry): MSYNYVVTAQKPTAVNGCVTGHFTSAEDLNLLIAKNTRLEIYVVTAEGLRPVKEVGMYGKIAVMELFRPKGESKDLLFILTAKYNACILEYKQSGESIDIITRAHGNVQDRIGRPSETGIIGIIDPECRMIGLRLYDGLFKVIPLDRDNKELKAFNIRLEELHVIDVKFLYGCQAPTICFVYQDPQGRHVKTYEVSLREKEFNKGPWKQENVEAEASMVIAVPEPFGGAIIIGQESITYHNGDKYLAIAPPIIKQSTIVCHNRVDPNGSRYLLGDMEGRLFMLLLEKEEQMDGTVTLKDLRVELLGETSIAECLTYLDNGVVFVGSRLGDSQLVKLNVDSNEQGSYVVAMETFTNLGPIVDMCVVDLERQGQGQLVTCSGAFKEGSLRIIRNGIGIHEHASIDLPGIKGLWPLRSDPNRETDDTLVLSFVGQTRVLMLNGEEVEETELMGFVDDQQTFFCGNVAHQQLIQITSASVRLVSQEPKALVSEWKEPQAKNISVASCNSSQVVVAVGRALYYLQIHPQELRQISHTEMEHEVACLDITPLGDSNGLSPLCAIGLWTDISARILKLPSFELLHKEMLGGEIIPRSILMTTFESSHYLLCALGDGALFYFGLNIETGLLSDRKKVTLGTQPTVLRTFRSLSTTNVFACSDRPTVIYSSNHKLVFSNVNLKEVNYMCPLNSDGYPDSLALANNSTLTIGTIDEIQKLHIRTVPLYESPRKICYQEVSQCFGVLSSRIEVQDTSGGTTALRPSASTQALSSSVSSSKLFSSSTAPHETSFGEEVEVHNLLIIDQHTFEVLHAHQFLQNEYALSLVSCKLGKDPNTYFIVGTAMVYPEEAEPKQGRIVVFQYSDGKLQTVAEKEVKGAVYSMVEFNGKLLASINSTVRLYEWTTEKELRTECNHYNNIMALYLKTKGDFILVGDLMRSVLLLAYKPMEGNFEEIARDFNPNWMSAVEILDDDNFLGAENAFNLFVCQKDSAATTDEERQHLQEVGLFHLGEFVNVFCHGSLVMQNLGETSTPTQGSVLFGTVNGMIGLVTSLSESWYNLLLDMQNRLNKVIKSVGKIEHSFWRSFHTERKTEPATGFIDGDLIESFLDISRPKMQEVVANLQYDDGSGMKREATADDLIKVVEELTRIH
Regarding `CC(=O)Nc1ccccc1C(=O)Nc1ncc(C)s1` [B-42, 2-Acetamido-N-(5-methylthiazol-2-yl)benzamide], the Kd (commonly a measure of binding affinity in units of concentration) was in the range of 20 to 100 µM.

`CC(=O)Nc1ccccc1C(=O)Nc1ncc(C(C)C)s1` [B-43, 2-Acetamido-N-(5-isopropylthiazol-2-yl)benzamide]: the dissociation constant Kd lay within 20 to 100 µM.

Regarding `CC(=O)Nc1ccccc1C(=O)Nc1ncc(-c2ccccc2)s1` [B-45, 2-acetamido-N-(5-phenylthiazol-2-yl)benzamide], the equilibrium dissociation constant (Kd) was under 20 µM.

As for `CC(=O)Nc1ccccc1C(=O)Nc1nc(-c2ccccc2)cs1` [B-46, 2-acetamido-N-(4-phenylthiazol-2-yl)benzamide], the Kd was 20 to 100 µM.

As to `CC(=O)Nc1ccccc1C(=O)Nc1ncc(S(C)(=O)=O)s1` [B-47, 2-Acetamido-N-(5-(methylsulfonyl)thiazol-2-yl)benzamide], the dissociation constant Kd is over 100 µM.

For `CC(=O)Nc1ccccc1C(=O)Nc1nc(S(C)(=O)=O)cs1` [B-48, 2-Acetamido-N-(4-(methylsulfonyl)thiazol-2-yl)benzamide], the Kd is over 100 µM.

As for `CC(=O)Nc1ccccc1C(=O)Nc1ccc([N+](=O)[O-])cn1` [B-53, 2-Acetamido-N-(5-nitropyridin-2-yl)benzamide], the equilibrium dissociation constant (Kd) was in the range of 20 to 100 µM.

As for `CC(=O)Nc1ccccc1C(=O)Nc1ccc(Cl)cn1` [B-54, 2-Acetamido-N-(5-chloropyridin-2-yl)benzamide], the dissociation constant (Kd) lay in the range of 20 to 100 µM.

Regarding `CC(=O)Nc1ccccc1C(=O)Nc1ccc(Br)cn1` [B-55, 2-Acetamido-N-(5-bromopyridin-2-yl)benzamide], the dissociation constant Kd was 20 to 100 µM.

As for `CC(=O)Nc1ccccc1C(=O)Nc1ncccn1` [B-56, 2-acetamido-N-(pyrimidin-2-yl)benzamide], the Kd was over 100 µM.

For `CC(=O)Nc1ccccc1C(=O)Nc1ccncn1` [B-57, 2-acetamido-N-(pyrimidin-4-yl)benzamide], the Kd was 20 to 100 µM.

Regarding `CC(=O)Nc1ccccc1C(=O)Nc1ccc(Cl)cc1` [B-58, 2-Acetamido-N-(4-chlorophenyl)benzamide], the Kd is 20 to 100 µM.

With `CC(=O)Nc1ccccc1C(=O)Nc1ccc(Br)cc1` [B-59, 2-Acetamido-N-(4-bromophenyl)benzamide], the dissociation constant (Kd) was in the range of 20 to 100 µM.

As for `CC(=O)Nc1ccccc1C(=O)Nc1ccc(I)cc1` [B-60, 2-Acetamido-N-(4-iodophenyl)benzamide], the dissociation constant Kd was in the range of 20 to 100 µM.

With `CC(C)C(=O)Nc1ccccc1C(=O)Nc1ncc([N+](=O)[O-])s1` [B-61, 2-Isobutyramido-N-(5-nitrothiazol-2-yl)benzamide], the Kd is 20 to 100 µM.

Regarding `O=C(Nc1ncc([N+](=O)[O-])s1)c1ccccc1NC(=O)C1CC1` [B-62, 2-(Cyclopropanecarboxamido)-N-(5-nitrothiazol-2-yl)benzamide], the Kd is 20 to 100 µM.

Turning to `O=C(Nc1ccccc1C(=O)Nc1ncc([N+](=O)[O-])s1)c1ccccc1` [B-63, 2-Benzamido-N-(5-nitrothiazol-2-yl)benzamide], the Kd is over 100 µM.

As for `CC(=O)N(C)c1ccccc1C(=O)Nc1ncc([N+](=O)[O-])s1` [B-64, 2-(N-Methylacetamido)-N-(5-nitrothiazol-2-yl)benzamide], the dissociation constant Kd was in the range of 20 to 100 µM.

For `COC(=O)Nc1ccccc1C(=O)Nc1ncc([N+](=O)[O-])s1` [B-65, methyl (2-((5-nitrothiazol-2-yl)carbamoyl)phenyl)carbamate], the equilibrium dissociation constant (Kd) is 20 to 100 µM.

Consider `CNC(=O)Nc1ccccc1C(=O)Nc1ncc([N+](=O)[O-])s1` [B-66, 2-(3-methylureido)-N-(5-nitrothiazol-2-yl)benzamide], for which the Kd is under 20 µM.

`CS(=O)(=O)Nc1ccccc1C(=O)Nc1ncc([N+](=O)[O-])s1` [B-67, 2-(methylsulfonamido)-N-(5-nitrothiazol-2-yl)benzamide]: the Kd is 20 to 100 µM.

`CNc1ccccc1C(=O)Nc1ncc([N+](=O)[O-])s1` [B-68, 2-(Methylamino)-N-(5-nitrothiazol-2-yl)benzamide]: the Kd was 20 to 100 µM.

Turning to `CN(C)c1ccccc1C(=O)Nc1ncc([N+](=O)[O-])s1` [B-69, 2-(dimethylamino)-N-(5-nitrothiazol-2-yl)benzamide], the Kd is over 100 µM.

For the origin of these results see patent US20240066136A1, “MODIFIED PROTEINS AND PROTEIN DEGRADERS” (Cullgen (Shanghai), Inc., priority 2020, published 2024).
